In patent US12030875B2, “EIF4E inhibitors and uses thereof” (PIC Therapeutics, Inc., priority 2018, dated 2024):

Molecular target: T1, Human eIF4E (Homo sapiens, UniProt P06730)
T1 construct: Human eIF4E (aa 28-217) with a C-terminal His-tag; made in house
Assay: Human eIF4E/4G2 binding assay (TR-FRET)
Settings: eIF4E (aa 28-217) with biotin labeled 4G2 peptide
Experimental: Human eIF4E (aa 28-217) with a C-terminal His-tag was expressed in E. coli in inclusion bodies. The protein was solubilized with 8 M urea and purified under denaturing conditions using nickel-charged HisTrap HP columns (GE Healthcare). The purified protein was then refolded by diluting in 20 mM Hepes pH 7.0, 0.5 M NaCl, 1 mM DTT, 1 mM EDTA, 0.5 M arginine plus 6 M urea, and then dialyzing overnight into the same buffer without the urea. The protein was further dialyzed into 20 mM Hepes, pH 6.5, 50 mM NaCl, 1 mM EDTA, 1 mM DTT, and concentrated using Hitrap SP sepharose FF columns (GE Healthcare). The concentrated protein was dialyzed into 20 mM Hepes, pH 7.0, 0.5M NaCl, 5 mM DTT and 10% glycerol, and stored at −80° C. until use.
Test compounds (3.43 mM stock in DMSO) were diluted 2-fold in series in DMSO (10 concentration points). Compound solutions (1.2 μl/well) were added into black 384-well polypropylene microplates (Matrix, Thermal Scientific). Twenty-two microliters per well of Assay Buffer (50 mM NaPi, pH 6.5, 50 mM KCl, 1 mM DTT and 0.5 mg/ml gamma globulin) and eight microliters per well of 82.5 nM purified eIF4E in Assay Buffer were added. The samples were incubated at room temperature (20-23° C.) for 15 min. Biotin labeled 4G2 peptide (Ac-Lys-Gln-Tyr-Asp-Arg-Glu-Phe-Leu-Leu-Asp-Phe-Gln-Phe-Met-Pro-Lys(Aha-Bio)-NH2, 1.75 μM stock in DMSO) was diluted to 0.14 μM in Assay Buffer (without DTT) and 5 μl/well was added. The samples were incubated at room temperature for 15 min. Five microliters per well of 6.4 nM Eu-streptavidin (Eu-SA, Perkin Elmer) and 80 nM Allophycocyanin (APC)-anti His antibody (Columbia Biosciences) in Assay Buffer (without DTT) were then added and the samples were incubated at room temperature for 20 min.
Assay signals were monitored by reading excitation at 340 nm and emission fluorescence at 615 nm and 665 nm on an Envision reader (Perkin Elmer). Normalized TR-FRET (time-resolved fluorescence resonance energy transfer) assay signal (Rn) was calculated by the formula: Rn═[(A−Ba−C×D)/(D−Bd)]×(Dc−Bd) • Where A is the fluorescence intensity of the sample at 665 nm, • D is the fluorescence intensity of the sample at 615 nm, • Ba and Bd are plate backgrounds at 665 nm and 615 nm, respectively, • Dc is the fluorescence intensity of 0.78 nM Eu-SA in the assay buffer at 615 nm • The cross-talk factor (C) is determined by the following formula: C=(Ac−Ba)/(Dc−Bd) • Where Ac is the fluorescence intensity of 0.78 nM Eu-SA in the assay buffer at 665 nm.
IC50 values were calculated using xLFit program (IDBS).

T1 sequence (P06730 28-217): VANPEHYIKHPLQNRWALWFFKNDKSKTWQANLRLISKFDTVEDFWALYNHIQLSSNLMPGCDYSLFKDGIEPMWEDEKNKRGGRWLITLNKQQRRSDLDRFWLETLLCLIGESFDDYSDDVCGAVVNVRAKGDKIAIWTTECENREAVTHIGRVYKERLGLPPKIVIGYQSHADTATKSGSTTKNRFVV

Row | Structure (SMILES) | IC50 [µM]
1 | O=C(O)C1CN(c2nc(-c3ccc(-c4ccc(F)cc4)cc3)c(-c3ccccc3)s2)CCO1 (stereo not shown) [Compound I-140] | < 5
2 | CC(CNc1nc(-c2ccc(-c3ccc(F)cc3)cc2)c(-c2cccnc2)s1)C(=O)O (stereo not shown) [Compound I-103] | > 25
3 | CC(CNc1nc(-c2ccc(-c3ccc(F)cc3)cc2)c(Br)s1)C(=O)O (stereo not shown) [Compound I-100] | 5 to 25
4 | CC1(C(=O)O)CN(c2nc(-c3ccc(Oc4ccccc4)cc3)c(-c3cncnc3)s2)C1 [Compound I-164] | > 25
5 | CC(C)(CNc1nc(-c2ccc(-c3cnco3)cc2)c(-c2cncnc2)s1)C(=O)O [Compound I-6] | > 25
6 | CC(CNc1nc(-c2ccc(-c3ccc(F)cc3)cc2)cs1)C(=O)O (stereo not shown) [Compound I-99] | > 25
7 | CC1(C(=O)O)CCCN(c2nc(-c3ccc(-c4ccc(F)cc4)cc3)c(-c3cccc4[nH]ccc34)s2)C1 (stereo not shown) [Compound I-147] | < 5
8 | CC(C)[C@H](CC(=O)O)Nc1nc(-c2ccc(-c3ccc(F)cc3)cc2)c(Br)s1 [Compound I-222] | < 5
9 | O=C(O)C1CCCN(c2nc(-c3ccc(-c4cnco4)cc3)c(-c3cccc4[nH]ccc34)s2)C1 (stereo not shown) [Compound I-34] | > 25
10 | CC(CC(=O)O)Nc1nc(-c2ccc(Oc3ccccc3)cc2)c(-c2cccc3[nH]ccc23)s1 (stereo not shown) [Compound I-175] | > 25
11 | CC(C)(CNc1nc(-c2ccc(Oc3ccccc3)cc2)c(-c2cccnc2)s1)C(=O)O [Compound I-156] | > 25
12 | O=C(O)[C@@H]1CCCN(c2nc(-c3ccc(Oc4ccccc4)cc3)c(-c3ccccc3)s2)C1 [Compound I-227] | < 5
13 | CC1(C(=O)O)CCCN(c2nc(-c3ccc(-c4cnco4)cc3)c(-c3cccnc3)s2)C1 (stereo not shown) [Compound I-62] | > 25
14 | O=C(O)C1CCN(c2nc(-c3ccc(-c4ccc(F)cc4)cc3)c(-c3cccc4[nH]ccc34)s2)CC1 [Compound I-139] | 5 to 25
15 | CC(CC(=O)O)Nc1nc(-c2ccc(Oc3ccccc3)cc2)c(-c2ccccc2)s1 (stereo not shown) [Compound I-172] | 5 to 25
16 | O=C(O)C1CCCN(c2nc(-c3ccc(Oc4ccccc4)cc3)c(-c3ccccc3)s2)C1 (stereo not shown) [Compound I-182] | < 5
17 | O=C(O)CC1CCCN1c1nc(-c2ccc(Oc3ccccc3)cc2)c(-c2cccc3[nH]ccc23)s1 (stereo not shown) [Compound I-189] | 5 to 25
18 | CC1(C(=O)O)CN(c2nc(-c3ccc(Oc4ccccc4)cc3)c(-c3cccnc3)s2)C1 [Compound I-165] | > 25
19 | O=C(O)C1CN(c2nc(-c3ccc(Oc4ccccc4)cc3)c(-c3cncnc3)s2)C1 [Compound I-159] | > 25
20 | O=C(O)C1CCN(c2nc(-c3ccc(-c4ccc(F)cc4)cc3)c(-c3cncnc3)s2)CC1 [Compound I-137] | > 25
21 | CC(C)(CNc1nc(-c2ccc(-c3ccc(F)cc3)cc2)c(Br)s1)C(=O)O [Compound I-71] | 5 to 25

Row | Structure (SMILES) | IC50 [µM]
22 | CC1(C(=O)O)CCCN(c2nc(-c3ccc(-c4cnco4)cc3)c(-c3cncnc3)s2)C1 (stereo not shown) [Compound I-61] | > 25
23 | CC1(C(=O)O)CN(c2nc(-c3ccc(-c4cnco4)cc3)c(-c3cncnc3)s2)C1 [Compound I-14] | > 25
24 | O=C(O)C1CCCN(c2nc(-c3ccc(Oc4ccccc4)cc3)c(-c3cccnc3)s2)C1 (stereo not shown) [Compound I-184] | > 25
25 | O=C(O)C1CCN(c2nc(-c3ccc(-c4cnco4)cc3)c(-c3ccccc3)s2)C1 (stereo not shown) [Compound I-40] | > 25
26 | O=C(O)C1(CNc2nc(-c3ccc(-c4cnco4)cc3)c(-c3cncnc3)s2)CC1 [Compound I-45] | > 25
27 | CC(CNc1nc(-c2ccc(-c3ccc(F)cc3)cc2)c(-c2cccc3[nH]ccc23)s1)C(=O)O (stereo not shown) [Compound I-104] | 5 to 25
28 | CC(CNc1nc(-c2ccc(-c3cnco3)cc2)c(-c2cccnc2)s1)C(=O)O (stereo not shown) [Compound I-29] | > 25
29 | O=C(O)CC1CCCN1c1nc(-c2ccc(-c3ccc(F)cc3)nc2)c(-c2cncnc2)s1 (stereo not shown) [Compound I-112] | > 25
30 | O=C(O)C1CN(c2nc(-c3ccc(-c4ccc(F)cc4)cc3)cs2)C1 [Compound I-76] | > 25
31 | O=C(O)C1CN(c2nc(-c3ccc(-c4ccc(F)cc4)cc3)c(-c3ccccc3)s2)C1 [Compound I-77] | 5 to 25
32 | O=C(O)C1CCCN(c2nc(-c3ccc(Oc4ccccc4)cc3)cs2)C1 (stereo not shown) [Compound I-181] | > 25
33 | CC(C)(CNc1nc(-c2ccc(Oc3ccccc3)cc2)c(-c2cncnc2)s1)C(=O)O [Compound I-155] | > 25
34 | CCCC(CNc1nc(-c2ccc(-c3cnco3)cc2)cs1)C(=O)O (stereo not shown) [Compound I-17] | > 25
35 | O=C(O)C1CC(CNc2nc(-c3ccc(-c4ccc(F)cc4)cc3)c(-c3cncnc3)s2)C1 (stereo not shown) [Compound I-129] | > 25
36 | CCCC(CNc1nc(-c2cncnc2)c(-c2ccc(-c3cnco3)cc2)s1)C(=O)O (stereo not shown) [Compound I-19] | > 25
37 | CCCC(CNc1nc(-c2ccc(Oc3ccccc3)cc2)c(-c2cccnc2)s1)C(=O)O (stereo not shown) [Compound I-170] | > 25
38 | CC(CC(=O)O)Nc1nc(-c2ccc(-c3ccc(F)cc3)cc2)c(-c2cncnc2)s1 (stereo not shown) [Compound I-96] | > 25
39 | O=C(O)C1CN(c2nc(-c3ccc(-c4cnco4)cc3)c(-c3ccccc3)s2)CCO1 (stereo not shown) [Compound I-56] | > 25
40 | O=C(O)C1(CNc2nc(-c3ccc(-c4ccc(F)cc4)cc3)c(-c3cccc4[nH]ccc34)s2)CC1 [Compound I-125] | < 5
41 | O=C(O)C1(CNc2nc(-c3ccc(-c4ccc(F)cc4)cc3)c(-c3ccccc3)s2)CC1 [Compound I-122] | < 5
42 | O=C(O)C1(CNc2nc(-c3ccc(Oc4ccccc4)cc3)c(-c3cncnc3)s2)CC1 [Compound I-197] | > 25

Row | Structure (SMILES) | IC50 [µM]
43 | O=C(O)C1CCN(c2nc(-c3ccc(Oc4ccccc4)cc3)c(-c3cccc4[nH]ccc34)s2)C1 (stereo not shown) [Compound I-194] | 5 to 25
44 | CC(C)(CNc1nc(-c2ccc(Oc3ccccc3)cc2)c(-c2ccccc2)s1)C(=O)O [Compound I-154] | < 5
45 | O=C(O)C1CCN(c2nc(-c3ccc(Oc4ccccc4)cc3)cs2)C1 (stereo not shown) [Compound I-190] | > 25
46 | O=C(O)CC1CCCN1c1nc(-c2ccc(-c3cnco3)cc2)c(-c2ccccc2)s1 (stereo not shown) [Compound I-36] | > 25
47 | O=C(O)C1CN(c2nc(-c3ccc(Oc4ccccc4)cc3)c(-c3cncnc3)s2)CCO1 (stereo not shown) [Compound I-214] | > 25
48 | O=C(O)C1CCN(c2nc(-c3ccc(-c4cnco4)cc3)c(-c3ccccc3)s2)CC1 [Compound I-52] | > 25
49 | O=C(O)C1(CNc2nc(-c3ccc(-c4ccc(F)cc4)cc3)cs2)CC1 [Compound I-120] | > 25
50 | CC1(C(=O)O)CCCN(c2nc(-c3ccc(Oc4ccccc4)cc3)c(-c3cncnc3)s2)C1 (stereo not shown) [Compound I-218] | > 25
51 | O=C(O)CC1CCCN1c1nc(-c2ccc(-c3ccc(F)cc3)cc2)c(-c2ccccc2)s1 (stereo not shown) [Compound I-111] | < 5
52 | CC(CC(=O)O)Nc1nc(-c2ccc(-c3cnco3)cc2)c(-c2cccnc2)s1 (stereo not shown) [Compound I-24] | > 25
53 | O=C(O)C1CCN(c2nc(-c3ccc(-c4cnco4)cc3)c(-c3cccc4[nH]ccc34)s2)C1 (stereo not shown) [Compound I-43] | > 25
54 | CC(C)(CNc1nc(-c2ccc(-c3cnco3)cc2)c(-c2cccnc2)s1)C(=O)O [Compound I-7] | > 25
55 | CC(CC(=O)O)Nc1nc(-c2ccc(Oc3ccccc3)cc2)c(-c2cccnc2)s1 (stereo not shown) [Compound I-174] | > 25
56 | CC(CC(=O)O)Nc1nc(-c2ccc(-c3ccc(F)cc3)cc2)cs1 (stereo not shown) [Compound I-93] | > 25
57 | CC1(C(=O)O)CN(c2nc(-c3ccc(-c4ccc(F)cc4)cc3)c(-c3cccnc3)s2)C1 [Compound I-85] | > 25
58 | CC1(C(=O)O)CN(c2nc(-c3ccc(-c4ccc(F)cc4)cc3)c(Br)s2)C1 [Compound I-82] | 5 to 25
59 | O=C(O)C1CCN(c2nc(-c3ccc(Oc4ccccc4)cc3)c(-c3ccccc3)s2)C1 (stereo not shown) [Compound I-191] | < 5
60 | CC(C)C(CC(=O)O)Nc1nc(-c2ccc(-c3cnco3)cc2)c(-c2cccc3[nH]ccc23)s1 (stereo not shown) [Compound I-4] | > 25
61 | O=C(O)C1CN(c2nc(-c3ccc(-c4ccc(F)cc4)cc3)c(-c3cccc4[nH]ccc34)s2)CCO1 (stereo not shown) [Compound I-143] | < 5
